79 sequences from the OligoGym collection can be followed below.

After the bases stand the sugars from the 5' end (letter, count) and the backbone: PS all phosphorothioate, else s phosphorothioate and o phosphodiester by linkage. Methylation of C is not given here. e = 2'-O-(2-methoxyethyl) (MOE); k = constrained ethyl (cEt); d = 2'-deoxy (DNA); m = 2'-O-methyl

The data set concerns the target HSD17B13. Particulars: ASO, HepaRG.

Turning to TGTTATCAGAAACTTA (sugars k3 d10 k3, PS), the target mRNA inhibition (1 µM) was 44%.

For ACATAACTTCATAGTG (sugars k3 d10 k3, PS), the target mRNA inhibition (1 µM) came to 27%.

With CCCTAGATTCTACACT (sugars k3 d10 k3, PS), for the setting “1 µM”, the target mRNA inhibition was found to be 22%.

Under “1 µM”, TTGAGTAGTGTAAGCT (sugars k3 d10 k3, PS) yielded a target mRNA inhibition of 52%.

In the case of GCATAAGAGCCAAACT (sugars k3 d10 k3, PS), the target mRNA inhibition (1 µM) came out at 67%.

The sequence “AGAGUCGGTCACCTTT (sugars k3 d1 m1 d8 k3, PS)” registered a target mRNA inhibition (1 µM) of 55%.

Consider CTACAAAACTGGTATC (sugars k3 d10 k3, PS), for which, under “1 µM”, the target mRNA inhibition turned out to be 0%.

TGTATGAGGTCTCTCA (sugars k3 d10 k3, PS) showed a target mRNA inhibition (1 µM) of 66%.

Consider CAAGAGTTCTTGCAGA (sugars k3 d10 k3, PS), for which, where the note is “1 µM”, the target mRNA inhibition turned out to be 17%.

For the setting “1 µM”, TAGGCTAAACCCTGGA (sugars k3 d10 k3, PS) showed a target mRNA inhibition of 64%.

CTTCAGAGTTATACAG (sugars k3 d10 k3, PS) came in with a target mRNA inhibition (1 µM) of 35%.

“AGGTAGCTTTTGTCCA (sugars k3 d9 k3 e1, PS)” returned a target mRNA inhibition (1 µM) of 58%.

Regarding “CTGAAATTGATACACC (sugars k3 d1 m1 d8 k3, PS)”, the target mRNA inhibition (1 µM) was found to be 71%.

“TAAACATCTCTGGGAC (sugars k3 d9 k3 e1, PS)” gave a target mRNA inhibition (1 µM) of 32%.

Turning to GAGTAGTGGAGCCAGA (sugars k3 d10 k3, PS), the target mRNA inhibition (1 µM) came out at 44%.

On to AGAGACATGAGGTTTT (sugars k3 d10 k3, PS), for which the target mRNA inhibition is, setting by setting: (0.02 µM) 18%; (0.078 µM) 16%; (0.313 µM) 47%; (1 µM) 77%; (1.25 µM) 69%; (5 µM) 85%.

In the case of “ATCTCTGGGACCAAGG (sugars kkdddddddddkekek, PS)”, the target mRNA inhibition (1 µM) was 65%.

“TAGCCAGTACAGTTCC (sugars k3 d1 m1 d8 k3, PS)” gave a target mRNA inhibition (1 µM) of 70%.

In turn, ACGCATGCGCAGTGAC (sugars k3 d10 k3, PS) gave a target mRNA inhibition (1 µM) of 52%.

In the case of GCAGCATTGATTCGAA (sugars k3 d10 k3, PS), the target mRNA inhibition (1 µM) came to 63%.

On to GAAGAGGCTAGGGAAA (sugars k3 d10 k3, PS), for which, where the note is “1 µM”, the target mRNA inhibition came to 44%.

As for TAATCATGGGACAGGA (sugars k3 d10 k3, PS), the target mRNA inhibition (1 µM) was 15%.

With “CATCTTAAGATACCCA (sugars k3 d9 k3 e1, PS)”, the target mRNA inhibition was 0% (0.02 µM); 23% (0.078 µM); 38% (0.313 µM); 76% (1 µM); 64% (1.25 µM); 79% (5 µM).

On to ACAGACTAAGGGACCA (sugars k3 d10 k3, PS), for which the target mRNA inhibition (1 µM) is 68%.

TCCACACCGCGCTTAT (sugars k3 d10 k3, PS) had a target mRNA inhibition (1 µM) of 32%.

Take GTCCAGAATAGAGTTG (sugars k3 d10 k3, PS): the target mRNA inhibition (1 µM) was 60%.

Where the note is “1 µM”, “TTGGTAAGTATTCCAT (sugars kkdddddddddkekek, PS)” had a target mRNA inhibition of 13%.

As for “CTCTTAGCTGTGCACT (sugars k3 d9 k3 e1, PS)”, the target mRNA inhibition stood at 0% (0.02 µM); 20% (0.078 µM); 0% (0.313 µM); 66% (1 µM); 39% (1.25 µM); 79% (5 µM).

Take TTTTATTATGAGGATC (sugars k3 d10 k3, PS): for the setting “1 µM”, the target mRNA inhibition was found to be 18%.

As to ATGGCTTAATTTTCGG (sugars k3 d10 k3, PS), under “1 µM”, the target mRNA inhibition was 33%.

Sequence TATTTAGGGCAAACCT (sugars k3 d10 k3, PS) displayed a target mRNA inhibition (1 µM) of 40%.

On to CTACAGATTGGAATGC (sugars k3 d10 k3, PS), for which the target mRNA inhibition (1 µM) is 52%.

TCTTACGACTTCATCT (sugars k3 d10 k3, PS) gave a target mRNA inhibition (1 µM) of 34%.

Turning to TCATTAGGAAAAGTGT (sugars k3 d10 k3, PS), the target mRNA inhibition (1 µM) was 16%.

In the case of AGATCGGCTGGATATA (sugars k3 d10 k3, PS), the target mRNA inhibition (1 µM) amounted to 27%.

For the sequence “CCTGTGTTAGCTTTAA (sugars kkdddddddddkekek, PS)”, where the note is “1 µM”, the target mRNA inhibition came to 62%.

For GTTAATGTAGTGTTTA (sugars k3 d10 k3, PS), the target mRNA inhibition was 7% (0.02 µM); 25% (0.078 µM); 45% (0.313 µM); 77% (1 µM); 78% (1.25 µM); 92% (5 µM).

As for AGCTAATGTATGAGGT (sugars k3 d10 k3, PS), where the note is “1 µM”, the target mRNA inhibition was 56%.

Regarding TCCCTGTGTAAATAAG (sugars k3 d10 k3, PS), the target mRNA inhibition (1 µM) turned out to be 35%.

“TTACAGCATCAAGACA (sugars kkdddddddddkekek, PS)”: the target mRNA inhibition (1 µM) stood at 22%.

As for ACCCAAGCTACCTCCA (sugars k3 d10 k3, PS), the target mRNA inhibition (1 µM) is 9%.

CTCATTTAGCAGCTTG (sugars k3 d10 k3, PS): the target mRNA inhibition is 1% (0.02 µM); 10% (0.078 µM); 46% (0.313 µM); 70% (1 µM); 65% (1.25 µM); 90% (5 µM).

With GCCGCACACTGAAGCC (sugars k3 d10 k3, PS), for the setting “1 µM”, the target mRNA inhibition is 25%.

For ATCCAGTAGGTGTGTT (sugars k3 d10 k3, PS), under “1 µM”, the target mRNA inhibition worked out at 41%.

TCTAAATTACTCCGTT (sugars k3 d10 k3, PS): for the setting “1 µM”, the target mRNA inhibition was 15%.

As for AAGATTAGTCTTGATG (sugars k3 d10 k3, PS), the target mRNA inhibition (1 µM) is 25%.

TCTAAAGGGCTGCTCT (sugars k3 d10 k3, PS) showed a target mRNA inhibition (1 µM) of 33%.

In turn, “TTGATATTCTGTGGCA (sugars kkdddddddddkekek, PS)” showed a target mRNA inhibition (1 µM) of 55%.

In turn, “TATAGACTGGGTAGGA (sugars k3 d9 k3 e1, PS)” showed a target mRNA inhibition (1 µM) of 55%.

Where the note is “1 µM”, “TGGTAACGGTGATCAA (sugars k3 d1 m1 d8 k3, PS)” returned a target mRNA inhibition of 41%.

The sequence AGTCTGCCTGCCTATT (sugars k3 d10 k3, PS) returned a target mRNA inhibition (1 µM) of 47%.

As to CACAGAACCAATATGC (sugars k3 d10 k3, PS), under “1 µM”, the target mRNA inhibition amounted to 54%.

TAGCTTAAACTCCAAT (sugars k3 d10 k3, PS): the target mRNA inhibition (1 µM) was found to be 60%.

Take “TGCACCGTTTTGGGCT (sugars k3 d1 m1 d8 k3, PS)”: where the note is “1 µM”, the target mRNA inhibition is 55%.

CCTAAAGGAGATCTGA (sugars k3 d10 k3, PS): the target mRNA inhibition (1 µM) worked out at 48%.

Turning to GAGTTCTACACCACAC (sugars k3 d10 k3, PS), the target mRNA inhibition (0.02 µM) came to 0%; the target mRNA inhibition (0.078 µM) is 19%; the target mRNA inhibition (0.313 µM) came out at 32%; the target mRNA inhibition (1 µM) worked out at 76%; the target mRNA inhibition (1.25 µM) turned out to be 65%; the target mRNA inhibition (5 µM) is 87%.

For the setting “1 µM”, TTTATGTAAGCACAGA (sugars k3 d10 k3, PS) came in with a target mRNA inhibition of 70%.

“TATCAGACTTCTTACG (sugars k3 d9 k3 e1, PS)” came in with a target mRNA inhibition (1 µM) of 28%.

As for TTTTAATACGACTTCC (sugars k3 d10 k3, PS), the target mRNA inhibition (1 µM) worked out at 57%.

In the case of “AGGCTAGGGAAATCTT (sugars k3 d9 k3 e1, PS)”, where the note is “1 µM”, the target mRNA inhibition turned out to be 55%.

For GTTCTTATCCACACCT (sugars k3 d10 k3, PS), where the note is “1 µM”, the target mRNA inhibition came to 57%.

In the case of TACTTACTTCTGTAGT (sugars k3 d10 k3, PS), the target mRNA inhibition (1 µM) stood at 12%.

Where the note is “1 µM”, ACATACGCATGCGCAG (sugars k3 d10 k3, PS) had a target mRNA inhibition of 20%.

Where the note is “1 µM”, GGGTCCACTTTTGGTG (sugars k3 d10 k3, PS) gave a target mRNA inhibition of 13%.

In turn, “TAGTATAGTTATCTTC (sugars kkdddddddddkekek, PS)” displayed a target mRNA inhibition (1 µM) of 34%.

The sequence “TTGAGTTCTCCACTGC (sugars kkdddddddddkekek, PS)” showed a target mRNA inhibition (1 µM) of 20%.

In the case of ACCAATATGCTCTGTC (sugars k3 d10 k3, PS), the target mRNA inhibition by setting is: (0.02 µM) 19%; (0.078 µM) 5%; (0.313 µM) 41%; (1 µM) 67%; (1.25 µM) 78%; (5 µM) 97%.

Consider GAACAGTTCAACTGAA (sugars k3 d10 k3, PS), for which, for the setting “1 µM”, the target mRNA inhibition turned out to be 10%.

As to “GTTAGAATAGTCTTCA (sugars kkdddddddddkekek, PS)”, under “1 µM”, the target mRNA inhibition came to 45%.

For the sequence TGCTAGTAATTGCATC (sugars k3 d10 k3, PS), the target mRNA inhibition (1 µM) is 17%.

“TAATAGCCAGTACAGT (sugars k3 d1 m1 d8 k3, PS)” showed a target mRNA inhibition (1 µM) of 51%.

Consider “GTATGTTTATGTAAGC (sugars k3 d9 k3 e1, PS)”, for which, for the setting “1 µM”, the target mRNA inhibition worked out at 71%.

Regarding “TTCTUATGTAATAGCC (sugars k3 d1 m1 d8 k3, PS)”, for the setting “1 µM”, the target mRNA inhibition worked out at 66%.

In turn, ATTACAGCATCAAGAC (sugars k3 d10 k3, PS) gave a target mRNA inhibition (1 µM) of 63%.

Under “1 µM”, “AAGTTAGCCCCCAGGA (sugars k3 d9 k3 e1, PS)” came in with a target mRNA inhibition of 23%.

Under “1 µM”, CCTTTTAACTACCCTC (sugars k3 d10 k3, PS) displayed a target mRNA inhibition of 22%.

Where the note is “1 µM”, “CGGTCACCTTTCATAA (sugars kkdddddddddkekek, PS)” yielded a target mRNA inhibition of 70%.

With AGTTAGTATAGTTATC (sugars k3 d10 k3, PS), the target mRNA inhibition reads like this: (0.02 µM) 35%; (0.078 µM) 35%; (0.313 µM) 60%; (1 µM) 74%; (1.25 µM) 68%; (5 µM) 84%.

“TGTAATAGCCAGTACA (sugars k3 d9 k3 e1, PS)”: the target mRNA inhibition (1 µM) was 34%.
